According to PubChem BioAssay (NCI):
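Step 1: Grow cells in 96-well plates. Step 2: Expose to compound for 48 hours at 5 concentrations. Step 3: Interpolate endpoints linearly; if unreached, use highest concentration. GI50 is the concentration that inhibits growth by half. TGI: concentration producing complete growth inhibition.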

What was measured:
Test in all cases: NCI tumour cell line growth inhibition, 48 h
MDA-MB-468 breast = tested on: MDA-MB-468 breast
SNB-19 CNS = tested on: SNB-19 CNS
RPMI-8226 leukemia = tested on: RPMI-8226 leukemia
ACHN renal = tested on: ACHN renal
SF-268 CNS = tested on: SF-268 CNS
SK-OV-3 ovarian = tested on: SK-OV-3 ovarian
UACC-62 melanoma = tested on: UACC-62 melanoma
UO-31 renal = tested on: UO-31 renal
EKVX NSCLC = tested on: EKVX NSCLC
SK-MEL-2 melanoma = tested on: SK-MEL-2 melanoma
IGROV1 ovarian = tested on: IGROV1 ovarian
NCI-H23 lung = tested on: NCI-H23 lung
M14 melanoma = tested on: M14 melanoma
A549 NSCLC = tested on: A549 NSCLC
NCI-H460 lung = tested on: NCI-H460 lung
COLO 205 colon = tested on: COLO 205 colon
SK-MEL-5 melanoma = tested on: SK-MEL-5 melanoma
CCRF-CEM leukemia = tested on: CCRF-CEM leukemia
786-0 renal = tested on: 786-0 renal
BT-549 breast = tested on: BT-549 breast
MDA-MB-435 = tested on: MDA-MB-435
K-562 leukemia = tested on: K-562 leukemia
PC-3 prostate = tested on: PC-3 prostate
LOX IMVI melanoma = tested on: LOX IMVI melanoma
U251 CNS = tested on: U251 CNS
NCI-H226 lung = tested on: NCI-H226 lung
HL-60(TB) leukemia = tested on: HL-60(TB) leukemia
DU-145 prostate = tested on: DU-145 prostate
HOP-62 NSCLC = tested on: HOP-62 NSCLC
HCT-116 colon = tested on: HCT-116 colon
HS 578T breast = tested on: HS 578T breast
OVCAR-5 ovarian = tested on: OVCAR-5 ovarian
KM12 colon = tested on: KM12 colon
NCI/ADR-RES ovarian = tested on: NCI/ADR-RES ovarian
HCC-2998 colon = tested on: HCC-2998 colon
SW-620 colon = tested on: SW-620 colon
SNB-75 CNS = tested on: SNB-75 CNS
HCT-15 colon = tested on: HCT-15 colon
NCI-H522 lung = tested on: NCI-H522 lung
HT29 colon = tested on: HT29 colon
MDA-MB-231 breast = tested on: MDA-MB-231 breast
SF-539 CNS = tested on: SF-539 CNS
TK-10 renal = tested on: TK-10 renal
CAKI-1 renal = tested on: CAKI-1 renal
OVCAR-8 ovarian = tested on: OVCAR-8 ovarian
OVCAR-3 ovarian = tested on: OVCAR-3 ovarian
SK-MEL-28 melanoma = tested on: SK-MEL-28 melanoma
MALME-3M melanoma = tested on: MALME-3M melanoma
SR leukemia = tested on: SR leukemia
OVCAR-4 ovarian = tested on: OVCAR-4 ovarian
SF-295 CNS = tested on: SF-295 CNS
T-47D breast = tested on: T-47D breast
UACC-257 melanoma = tested on: UACC-257 melanoma
MCF7 breast = tested on: MCF7 breast
MOLT-4 leukemia = tested on: MOLT-4 leukemia
HOP-92 NSCLC = tested on: HOP-92 NSCLC
SN12C renal = tested on: SN12C renal
A498 renal = tested on: A498 renal

Compound: Cc1cc(NC(=O)NCCOc2ccc(N3C(N)=NC(N)=NC3(C)C)cc2Cl)ccc1S(=O)(=O)F
- GI50 (MDA-MB-468 breast): 1.46 µM
- TGI (MDA-MB-468 breast): 27.6 µM

Compound: CN(C)Cc1ccc(NC(=O)c2cncc(C#Cc3cnc(N)c4ncccc34)c2)cc1C(F)(F)F
- GI50 (MDA-MB-468 breast): 1.56 µM
- TGI (MDA-MB-468 breast): 3.21 µM

Compound: O=C(CCN1CCCC1)Nc1ccc2c(Nc3ccc(F)cc3)c3ccccc3nc2c1
- GI50 (MDA-MB-468 breast): 1.26 µM
- TGI (MDA-MB-468 breast): 2.8 µM

Compound: Nc1c(C(=O)c2cccc(-c3cccnc3)c2)cnn1-c1ccc(F)cc1
- GI50 (MDA-MB-468 breast): > 25 µM
- TGI (MDA-MB-468 breast): > 25 µM

Compound: COc1ccc(/C=C\c2cc(OC)c(OC)c(OC)c2)cc1NC(=O)/C=C/c1ccc(OC)c(OC)c1
- GI50 (MDA-MB-468 breast): 1.9 µM
- TGI (MDA-MB-468 breast): > 100 µM

Compound: CCCC(=O)Oc1ccc(/C(=C(\C)c2ccc(Cl)cc2)c2ccc(OCCN(CC)CC)cc2)cc1
- GI50 (MDA-MB-468 breast): 1.53 µM
- TGI (MDA-MB-468 breast): 3.67 µM

Compound: COCCOCCOCCOc1ccc(-n2cc(CCCN(CCNc3ccnc4cc(Cl)ccc34)C(=O)CCC(=O)O[C@@H]3O[C@@H]4OC5(C)CC[C@H]6[C@H](C)CC[C@@H]([C@H]3C)[C@@]46OO5)nn2)cc1
- GI50 (SNB-19 CNS): > 10.3 µM
- TGI (SNB-19 CNS): > 10.3 µM
- GI50 (RPMI-8226 leukemia): 0.386 µM
- TGI (RPMI-8226 leukemia): > 10.3 µM
- GI50 (ACHN renal): 3.97 µM
- TGI (ACHN renal): > 10.3 µM
- GI50 (SF-268 CNS): 7.69 µM
- TGI (SF-268 CNS): > 10.3 µM
- GI50 (SK-OV-3 ovarian): > 10.3 µM
- TGI (SK-OV-3 ovarian): > 10.3 µM
- GI50 (UACC-62 melanoma): 1.18 µM
- TGI (UACC-62 melanoma): > 10.3 µM
- GI50 (UO-31 renal): 1.37 µM
- TGI (UO-31 renal): > 10.3 µM
- GI50 (EKVX NSCLC): 1.67 µM
- TGI (EKVX NSCLC): > 10.3 µM
- GI50 (SK-MEL-2 melanoma): 5.76 µM
- TGI (SK-MEL-2 melanoma): > 10.3 µM
- GI50 (IGROV1 ovarian): 4.54 µM
- TGI (IGROV1 ovarian): > 10.3 µM
- GI50 (NCI-H23 lung): 1.77 µM
- TGI (NCI-H23 lung): > 10.3 µM
- GI50 (M14 melanoma): 3.19 µM
- TGI (M14 melanoma): > 10.3 µM
- GI50 (A549 NSCLC): 6.09 µM
- TGI (A549 NSCLC): > 10.3 µM
- GI50 (NCI-H460 lung): 10.1 µM
- TGI (NCI-H460 lung): > 10.3 µM
- GI50 (COLO 205 colon): 1.12 µM
- TGI (COLO 205 colon): > 10.3 µM
- GI50 (SK-MEL-5 melanoma): 1.18 µM
- TGI (SK-MEL-5 melanoma): 8.81 µM
- GI50 (CCRF-CEM leukemia): 1.07 µM
- TGI (CCRF-CEM leukemia): > 10.3 µM
- GI50 (786-0 renal): 5.54 µM
- TGI (786-0 renal): > 10.3 µM
- GI50 (BT-549 breast): 0.771 µM
- TGI (BT-549 breast): 6.85 µM
- GI50 (MDA-MB-435): 1.25 µM
- TGI (MDA-MB-435): > 10.3 µM
- GI50 (K-562 leukemia): 0.434 µM
- TGI (K-562 leukemia): > 10.3 µM
- GI50 (PC-3 prostate): 0.301 µM
- TGI (PC-3 prostate): > 10.3 µM
- GI50 (LOX IMVI melanoma): 0.731 µM
- TGI (LOX IMVI melanoma): > 10.3 µM
- GI50 (U251 CNS): 4.31 µM
- TGI (U251 CNS): > 10.3 µM
- GI50 (NCI-H226 lung): 3.18 µM
- TGI (NCI-H226 lung): > 10.3 µM
- GI50 (HL-60(TB) leukemia): 0.353 µM
- TGI (HL-60(TB) leukemia): 2.37 µM
- GI50 (DU-145 prostate): > 10.3 µM
- TGI (DU-145 prostate): > 10.3 µM
- GI50 (HOP-62 NSCLC): > 10.3 µM
- TGI (HOP-62 NSCLC): > 10.3 µM
- GI50 (HCT-116 colon): 0.434 µM
- TGI (HCT-116 colon): > 10.3 µM
- GI50 (HS 578T breast): 2.54 µM
- TGI (HS 578T breast): > 10.3 µM
- GI50 (OVCAR-5 ovarian): 1.7 µM
- TGI (OVCAR-5 ovarian): > 10.3 µM
- GI50 (KM12 colon): 0.792 µM
- TGI (KM12 colon): > 10.3 µM
- GI50 (NCI/ADR-RES ovarian): 2.45 µM
- TGI (NCI/ADR-RES ovarian): > 10.3 µM
- GI50 (HCC-2998 colon): 7.16 µM
- TGI (HCC-2998 colon): > 10.3 µM
- GI50 (SW-620 colon): 0.654 µM
- TGI (SW-620 colon): > 10.3 µM
- GI50 (SNB-75 CNS): > 10.3 µM
- TGI (SNB-75 CNS): > 10.3 µM
- GI50 (HCT-15 colon): 0.388 µM
- TGI (HCT-15 colon): > 10.3 µM
- GI50 (NCI-H522 lung): 0.754 µM
- TGI (NCI-H522 lung): > 10.3 µM
- GI50 (HT29 colon): 1.23 µM
- TGI (HT29 colon): > 10.3 µM
- GI50 (MDA-MB-231 breast): > 10.3 µM
- TGI (MDA-MB-231 breast): > 10.3 µM
- GI50 (SF-539 CNS): 4.97 µM
- TGI (SF-539 CNS): > 10.3 µM
- GI50 (TK-10 renal): > 10.3 µM
- TGI (TK-10 renal): > 10.3 µM
- GI50 (CAKI-1 renal): > 10.3 µM
- TGI (CAKI-1 renal): > 10.3 µM
- GI50 (OVCAR-8 ovarian): 1.83 µM
- TGI (OVCAR-8 ovarian): > 10.3 µM
- GI50 (OVCAR-3 ovarian): 0.883 µM
- TGI (OVCAR-3 ovarian): > 10.3 µM
- GI50 (SK-MEL-28 melanoma): 4.01 µM
- TGI (SK-MEL-28 melanoma): > 10.3 µM
- GI50 (MALME-3M melanoma): 1.73 µM
- TGI (MALME-3M melanoma): 4.2 µM
- GI50 (SR leukemia): 0.375 µM
- TGI (SR leukemia): 3.34 µM
- GI50 (OVCAR-4 ovarian): 2 µM
- TGI (OVCAR-4 ovarian): > 10.3 µM
- GI50 (SF-295 CNS): 3.63 µM
- TGI (SF-295 CNS): > 10.3 µM
- GI50 (T-47D breast): 0.42 µM
- TGI (T-47D breast): > 10.3 µM
- GI50 (UACC-257 melanoma): 1.86 µM
- TGI (UACC-257 melanoma): > 10.3 µM
- GI50 (MCF7 breast): 1.04 µM
- TGI (MCF7 breast): > 10.3 µM
- GI50 (MOLT-4 leukemia): 0.408 µM
- TGI (MOLT-4 leukemia): > 10.3 µM
- GI50 (MDA-MB-468 breast): 1.01 µM
- TGI (MDA-MB-468 breast): > 10.3 µM
- GI50 (HOP-92 NSCLC): 1.09 µM
- TGI (HOP-92 NSCLC): 8.11 µM
- GI50 (SN12C renal): 4.77 µM
- TGI (SN12C renal): > 10.3 µM
- GI50 (A498 renal): > 10.3 µM
- TGI (A498 renal): > 10.3 µM
